Reference: US7642269B2, “Pyrrolo[3,2-B]pyridine derivatives and processes for the preparation thereof” (Yuhan Corporation, priority 2005, dated 2010)
Structures can show the parent of a compound that is named as a salt.

Target: T1, H^+/K^+-ATPase (Sus scrofa, UniProt P19156)
T1 construct: used as an enzyme source of the in vitro enzyme reaction assay of proton pump; from tissue; host or cells: hog gastric fundic mucosa (membrane vesicles, lyophilized)
Test: Inhibitory effects on proton pump (H^+/K^+-ATPase) activity, hog gastric vesicles
Format: biochemical
Settings: K^+ stimulated H^+/K^+-ATPase activity, hog gastric vesicle, Pi measured at 620 nm
Experimental: Preparation of Gastric Proton Pump Vesicles
The hog fundic regions containing parietal and peptic cells were scraped with slide-glass. The collected cells were suspended in 10 ml of 0.25M sucrose buffer and homogenized using a tight-fitting Teflon-glass homogenizer. The homogenate was centrifuged for 35 min at 8,000 rpm and the pellet was discarded. The supernatant was further centrifuged for 75 min at 25,000 rpm. The resulting pellets were re-suspended in the sucrose buffer (10 ml), and then the suspension was laid onto discontinuous density gradients consisting of 0.25M sucrose buffer and isolation medium containing 9% Ficoll (w/w). After being centrifuged for 3 hours and 15 minutes at 100,000×g, the material at the interface of sucrose buffer and Ficoll solution was collected and then centrifuged for 40 minutes at 100,000×g. The resulting pellets were re-suspended in 1 ml of 5 mM Hepes/Tris buffer (pH 6.1). This material was lyophilized and stored at −70° C. and used as an enzyme source of the in vitro enzyme reaction assay of proton pump.
1-2. Measurement of Inhibitory Effects on Proton Pump (H+/K+-ATPase) activity
The inhibitory effects of the compounds of the present invention against proton pump activity were evaluated in 96-well plate. In this assay, the K^+ specific H^+/K^+-ATPase activity was calculated based on the difference between the activity of H^+/K^+-ATPase activity with K^+ and without K^+ ion. In 96-well plate, 1% dimethylsulfoxide (DMSO) in buffer was added to negative and positive control groups and the diluted compounds of the present invention in buffer were added to test group. All assays were performed in 100 μl reaction volume at room temperature, and the hog gastric vesicle was kept in ice before use. At the beginning of the reaction, 10 μl of reaction buffer containing 1% DMSO was added to the negative and positive control groups and to each concentration of compounds in the test group. Then lyophilized vesicle in 5 mM Pipes/Tris buffer (pH 6.1) was pre-incubated in the presence of various concentrations of test compounds. After a 5 minute incubation, negative and positive buffers were respectively added to the previous reaction mixture. As the substrate, ATP was added to the reaction buffer, and incubated for 30 minutes at 37° C. Enzymatic activity was stopped by the addition of colorimetric reagent (2× malachite green, 1× ammonium molybdate, 1× polyvinyl alcohol, 2× H2O) and the amount of mono phosphate (Pi) in the reaction was measured at 620 nm using the micro plate reader (Genios Pro, TECAN). The difference between the Pi production with K^+ and without K^+ is taken as K^+ stimulated H^+/K^+-ATPase activity.

T1 sequence (P19156 2-1034 limits assumed): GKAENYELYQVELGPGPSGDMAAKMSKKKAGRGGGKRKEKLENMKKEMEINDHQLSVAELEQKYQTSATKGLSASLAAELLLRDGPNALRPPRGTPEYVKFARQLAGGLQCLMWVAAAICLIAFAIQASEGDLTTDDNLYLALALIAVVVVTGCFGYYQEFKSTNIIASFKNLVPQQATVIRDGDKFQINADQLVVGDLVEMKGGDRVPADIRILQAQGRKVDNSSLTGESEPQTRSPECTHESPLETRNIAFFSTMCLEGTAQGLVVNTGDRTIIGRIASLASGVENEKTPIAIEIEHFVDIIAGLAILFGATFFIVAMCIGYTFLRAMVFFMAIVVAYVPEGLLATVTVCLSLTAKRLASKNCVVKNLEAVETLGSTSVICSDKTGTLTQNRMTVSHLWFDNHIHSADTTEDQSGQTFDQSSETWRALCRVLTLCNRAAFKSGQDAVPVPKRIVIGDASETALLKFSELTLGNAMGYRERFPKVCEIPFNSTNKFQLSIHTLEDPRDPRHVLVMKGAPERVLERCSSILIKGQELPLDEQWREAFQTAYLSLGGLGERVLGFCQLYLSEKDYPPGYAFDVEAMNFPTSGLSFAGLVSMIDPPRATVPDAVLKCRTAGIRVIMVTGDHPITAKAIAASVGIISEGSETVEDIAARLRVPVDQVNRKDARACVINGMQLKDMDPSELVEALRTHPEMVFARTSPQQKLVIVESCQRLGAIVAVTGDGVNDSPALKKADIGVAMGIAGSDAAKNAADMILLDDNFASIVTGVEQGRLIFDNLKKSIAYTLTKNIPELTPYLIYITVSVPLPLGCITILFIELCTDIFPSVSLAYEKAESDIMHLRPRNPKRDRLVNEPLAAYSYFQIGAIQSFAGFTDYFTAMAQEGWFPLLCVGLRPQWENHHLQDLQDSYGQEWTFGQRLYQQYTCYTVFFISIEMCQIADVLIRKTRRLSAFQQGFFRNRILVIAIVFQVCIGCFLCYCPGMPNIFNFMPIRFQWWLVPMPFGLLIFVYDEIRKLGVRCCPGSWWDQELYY
T1 sequence (P18434 whole entry partner): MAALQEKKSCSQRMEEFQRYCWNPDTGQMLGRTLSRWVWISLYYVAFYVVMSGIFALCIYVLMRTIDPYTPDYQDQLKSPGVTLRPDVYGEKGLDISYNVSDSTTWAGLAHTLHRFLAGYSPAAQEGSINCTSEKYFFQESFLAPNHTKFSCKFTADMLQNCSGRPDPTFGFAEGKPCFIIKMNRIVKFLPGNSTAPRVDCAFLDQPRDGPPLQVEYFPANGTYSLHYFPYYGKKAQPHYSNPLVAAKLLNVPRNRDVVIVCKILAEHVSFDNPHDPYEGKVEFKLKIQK

SMILES | IC50
COCCn1c(C)c(C)c2nccc(OCc3cc(F)cc(F)c3)c21 [Example 181, 7-(3,5-difluorobenzyloxy)-1-(2-methoxyethyl)-2,3-dimethyl-1H-pyrrolo[3,2-b]pyridine hydrochloride] | 4710 nM
Cc1c(C)n(Cc2ccccc2)c2c(OCc3ccc(Br)cc3)ccnc12 [Example 219, 1-benzyl-7-(4-bromobenzyloxy)-2,3-dimethyl-1H-pyrrolo[3,2-b]pyridine hydrochloride] | 60 nM
Cc1ccc(Cn2c(C)c(C)c3nccc(OCc4ccc(F)cc4)c32)cc1 [Example 34, 7-(4-fluorobenzyloxy)-2,3-dimethyl-1-(4-methylbenzyl)-1H-pyrrolo[3,2-b]pyridine hydrochloride] | 230 nM
C=CCn1c(C)c(C)c2nccc(OCc3ccccc3OCC)c21 [Example 164, 1-allyl-7-(2-ethoxybenzyloxy)-2,3-dimethyl-1H-pyrrolo[3,2-b]pyridine hydrochloride] | 3000 nM
CCOc1ccccc1COc1ccnc2c(C)c(C)n(Cc3cccc(F)c3)c12 [Example 178, 1-(3-fluorobenzyl)-7-(2-ethoxybenzyloxy)-2,3-dimethyl-1H-pyrrolo[3,2-b]pyridine hydrochloride] | 840 nM
Cc1c(C)n(Cc2ccc(Cl)cc2)c2c(OCc3ccc(Cl)cc3)ccnc12 [Example 88, 7-(4-chlorobenzyloxy)-1-(4-chlorobenzyl)-2,3-dimethyl-1H-pyrrolo[3,2-b]pyridine hydrochloride] | 670 nM
Cc1c(C)n(Cc2ccc(F)cc2)c2c(OCc3ccc4c(c3)OCO4)ccnc12 [Example 118, 7-(benzo[1,3]dioxol-5-ylmethoxy)-1-(4-fluorobenzyl)-2,3-dimethyl-1H-pyrrolo[3,2-b]pyridine hydrochloride] | 460 nM
Cc1c(C)n(CC2CC2)c2c(OCc3ccc4c(c3)OCO4)ccnc12 [Example 121, 7-(benzo[1,3]dioxol-5-ylmethoxy)-1-cyclopropylmethyl-2,3-dimethyl-1H-pyrrolo[3,2-b]pyridine hydrochloride] | 320 nM
COCCn1c(C)c(C)c2nccc(OCc3ccc(F)cc3)c21 [Example 131, 7-(4-fluorobenzyloxy)-1-(2-methoxyethyl)-2,3-dimethyl-1H-pyrrolo[3,2-b]pyridine camphosulfonate] | 60 nM
Cc1c(C)n(Cc2ccccc2F)c2c(OCc3ccc(Cl)cc3)ccnc12 [Example 89, 7-(4-chlorobenzyloxy)-1-(2-fluorobenzyl)-2,3-dimethyl-1H-pyrrolo[3,2-b]pyridine hydrochloride] | 340 nM
Cc1ccc(Cn2c(C)c(C)c3nccc(NCc4ccc(F)cc4)c32)cc1 [Example 263, N-[1-(4-methylbenzyl)-2,3-dimethyl-1H-pyrrolo[3,2-b]pyridin-7-yl]-4-fluorobenzylamine hydrochloride] | 1450 nM
Cc1ccc(Cn2c(C)c(C)c3nccc(OCc4ccc(Cl)cc4)c32)cc1 [Example 96, 7-(4-chlorobenzyloxy)-1-(4-methylbenzyl)-2,3-dimethyl-1H-pyrrolo[3,2-b]pyridine hydrochloride] | 130 nM
Cc1c(C)n(CC2OCCO2)c2c(OCc3ccc(F)cc3)ccnc12 [Example 39, 1-(1,3-dioxolan-2-ylmethyl)-7-(4-fluorobenzyloxy)-2,3-dimethyl-1H-pyrrolo[3,2-b]pyridine hydrochloride] | 220 nM
Cc1c(C)n(Cc2ccc(F)cc2)c2c(OCc3cc(F)cc(F)c3)ccnc12 [Example 184, 7-(3,5-difluorobenzyloxy)-1-(4-fluorobenzyl)-2,3-dimethyl-1H-pyrrolo[3,2-b]pyridine hydrochloride] | 1070 nM
COc1cccc(Cn2c(C)c(C)c3nccc(OCc4ccc(Cl)cc4Cl)c32)c1 [Example 141, 7-(2,4-dichlorobenzyloxy)-1-(3-methoxybenzyl)-2,3-dimethyl-1H-pyrrolo[3,2-b]pyridine hydrochloride] | 90 nM
Cc1c(C)n(Cc2ccncc2)c2c(OCc3ccc(Cl)cc3)ccnc12 [Example 80, 7-(4-chlorobenzyloxy)-2,3-dimethyl-1-(pyridin-4-ylmethyl)-1H-pyrrolo[3,2-b]pyridine hydrochloride] | 2870 nM

SMILES | IC50
Cc1c(C)n(Cc2ccc3ccccc3c2)c2c(N3CCc4ccccc4C3)ccnc12 [Example 2, 1-(2-naphthylmethyl)-7-(1,2,3,4-tetrahydroisoquinolin-2-yl)-2,3-dimethyl-1H-pyrrolo[3,2-b]pyridine hydrochloride] | 1060 nM
Cc1ccc(Cn2c(C)c(C)c3nccc(OCc4cc(F)cc(F)c4)c32)cc1 [Example 196, 7-(3,5-difluorobenzyloxy)-1-(4-methylbenzyl)-2,3-dimethyl-1H-pyrrolo[3,2-b]pyridine hydrochloride] | 380 nM
COC(=O)c1ccc(Cn2c(C)c(C)c3nccc(OCc4ccc(F)cc4)c32)cc1 [Example 35, 4-[7-(4-fluorobenzyloxy)-2,3-dimethyl-pyrrolo[3,2-b]pyridin-1-ylmethyl]-benzoic acid methyl ester hydrochloride] | 1090 nM
Cc1c(C)n(CC2CC2)c2c(NCc3ccc(F)cc3)ccnc12 [Example 255, N-(1-cyclopropylmethyl-2,3-dimethyl-1H-pyrrolo[3,2-b]pyridin-7-yl)-4-fluorobenzylamine hydrochloride] | 550 nM
Cc1c(C)n(CC2OCCO2)c2c(N3CCc4ccccc4C3)ccnc12 [Example 3, 1-(1,3-dioxolan-2-ylmethyl)-7-(1,2,3,4-tetrahydroisoquinolin-2-yl)-2,3-dimethyl-1H-pyrrolo[3,2-b]pyridine hydrochloride] | 640 nM
CCOc1ccccc1COc1ccnc2c(C)c(C)n(CC3CC3)c12 [Example 161, 1-cyclopropylmethyl-7-(2-ethoxybenzyloxy)-2,3-dimethyl-1H-pyrrolo[3,2-b]pyridine hydrochloride] | 580 nM
COCCn1c(C)c(C)c2nccc(NCc3ccc(F)cc3)c21 [Example 256, N-[1-(2-methoxyethyl)-2,3-dimethyl-1H-pyrrolo[3,2-b]pyridin-7-yl]-4-fluorobenzylamine hydrochloride] | 2080 nM
COCCn1c(C)c(C)c2nccc(OCc3ccc(F)cc3)c21 [Example 122, 7-(4-fluorobenzyloxy)-1-(2-methoxyethyl)-2,3-dimethyl-1H-pyrrolo[3,2-b]pyridine] | 20 nM
COCCn1c(C)c(C)c2nccc(OCc3ccc(F)cc3)c21 [Example 124, 7-(4-fluorobenzyloxy)-1-(2-methoxyethyl)-2,3-dimethyl-1H-pyrrolo[3,2-b]pyridine benzenesulfonate] | 50 nM
Cc1c(C)n(CC(C)C)c2c(OCc3ccc(Br)cc3)ccnc12 [Example 228, 7-(4-bromobenzyloxy)-1-isobutyl-2,3-dimethyl-1H-pyrrolo[3,2-b]pyridine hydrochloride] | 30 nM
COCCn1c(C)c(C)c2nccc(N3CCc4ccccc4C3)c21 [Example 5, 1-(2-methoxyethyl)-7-(1,2,3,4-tetrahydroisoquinolin-2-yl)-2,3-dimethyl-1H-pyrrolo[3,2-b]pyridine hydrochloride] | 320 nM
Cc1c(C)n(CC2CC2)c2c(OCc3cc(F)cc(F)c3)ccnc12 [Example 180, 1-cyclopropylmethyl-7-(3,5-difluorobenzyloxy)-2,3-dimethyl-1H-pyrrolo[3,2-b]pyridine hydrochloride] | 830 nM
COc1cccc(Cn2c(C)c(C)c3nccc(OCc4ccc(Cl)cc4)c32)c1 [Example 92, 7-(4-chlorobenzyloxy)-1-(3-methoxybenzyl)-2,3-dimethyl-1H-pyrrolo[3,2-b]pyridine hydrochloride] | 50 nM
COC(=O)Cn1c(C)c(C)c2nccc(OCc3ccc(Cl)cc3)c21 [Example 83, [7-(4-chlorobenzyloxy)-2,3-dimethyl-pyrrolo[3,2-b]pyridin-1-yl]acetic acid methyl ester hydrochloride] | 3820 nM
COCCn1c(C)c(C)c2nccc(OCc3cccc(C)c3)c21 [Example 157, 1-(2-methoxyethyl)-2,3-dimethyl-7-(3-methylbenzyloxy)-1H-pyrrolo[3,2-b]pyridine hydrochloride] | 570 nM
Cc1c(C)n(Cc2ccccc2)c2c(OCc3ccc4c(c3)OCO4)ccnc12 [Example 115, 7-(benzo[1,3]dioxol-5-ylmethoxy)-1-benzyl-2,3-dimethyl-1H-pyrrolo[3,2-b]pyridine hydrochloride] | 130 nM
